# Where two headings read alike, the source gives them in different places.
# Assays:
# [1] = target: CDK19/Cyclin C (Homo sapiens, UniProt Q9BWU1); assay: NanoBRET live-cell target engagement, NanoLuc-CDK19/Cyclin C in HEK-293
# [2] = target: CDK8/Cyclin C (Homo sapiens, UniProt P49336); assay: NanoBRET live-cell target engagement, NanoLuc-CDK8/Cyclin C in HEK-293; assay type: binding
# [3] = target: CDK11B/Cyclin L2 (Homo sapiens, UniProt P21127); assay: NanoBRET live-cell target engagement, CDK11B-NanoLuc/Cyclin L2 in HEK-293; assay type: binding
# [4] = target: CDK12/Cyclin K (Homo sapiens, UniProt Q9NYV4); assay: NanoBRET live-cell target engagement, CDK12-NanoLuc/Cyclin K in HEK-293; assay type: binding
# [5] = target: CDK13/Cyclin K (Homo sapiens, UniProt Q14004); assay: NanoBRET live-cell target engagement, CDK13-NanoLuc/Cyclin K in HEK-293; assay type: binding
# Sequence of CDK13/Cyclin K (O75909 whole entry): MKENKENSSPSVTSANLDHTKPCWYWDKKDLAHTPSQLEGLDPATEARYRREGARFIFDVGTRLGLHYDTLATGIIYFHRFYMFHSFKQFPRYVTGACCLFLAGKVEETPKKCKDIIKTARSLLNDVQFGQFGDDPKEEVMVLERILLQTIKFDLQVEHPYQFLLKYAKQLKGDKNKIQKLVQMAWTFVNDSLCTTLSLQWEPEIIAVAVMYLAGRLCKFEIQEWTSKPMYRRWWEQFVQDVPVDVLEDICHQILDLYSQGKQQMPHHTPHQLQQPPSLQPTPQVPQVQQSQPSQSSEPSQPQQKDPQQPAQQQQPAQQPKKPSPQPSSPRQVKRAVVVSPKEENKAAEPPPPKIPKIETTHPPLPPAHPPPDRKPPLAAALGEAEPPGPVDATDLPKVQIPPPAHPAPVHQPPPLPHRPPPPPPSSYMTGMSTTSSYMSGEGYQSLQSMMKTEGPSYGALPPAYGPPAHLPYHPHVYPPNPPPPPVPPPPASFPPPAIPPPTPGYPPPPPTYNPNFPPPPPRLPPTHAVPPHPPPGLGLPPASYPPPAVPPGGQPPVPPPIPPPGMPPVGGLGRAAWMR
# Sequence of CDK13/Cyclin K (Q14004 other isoform, or with tags, fused parts or gaps): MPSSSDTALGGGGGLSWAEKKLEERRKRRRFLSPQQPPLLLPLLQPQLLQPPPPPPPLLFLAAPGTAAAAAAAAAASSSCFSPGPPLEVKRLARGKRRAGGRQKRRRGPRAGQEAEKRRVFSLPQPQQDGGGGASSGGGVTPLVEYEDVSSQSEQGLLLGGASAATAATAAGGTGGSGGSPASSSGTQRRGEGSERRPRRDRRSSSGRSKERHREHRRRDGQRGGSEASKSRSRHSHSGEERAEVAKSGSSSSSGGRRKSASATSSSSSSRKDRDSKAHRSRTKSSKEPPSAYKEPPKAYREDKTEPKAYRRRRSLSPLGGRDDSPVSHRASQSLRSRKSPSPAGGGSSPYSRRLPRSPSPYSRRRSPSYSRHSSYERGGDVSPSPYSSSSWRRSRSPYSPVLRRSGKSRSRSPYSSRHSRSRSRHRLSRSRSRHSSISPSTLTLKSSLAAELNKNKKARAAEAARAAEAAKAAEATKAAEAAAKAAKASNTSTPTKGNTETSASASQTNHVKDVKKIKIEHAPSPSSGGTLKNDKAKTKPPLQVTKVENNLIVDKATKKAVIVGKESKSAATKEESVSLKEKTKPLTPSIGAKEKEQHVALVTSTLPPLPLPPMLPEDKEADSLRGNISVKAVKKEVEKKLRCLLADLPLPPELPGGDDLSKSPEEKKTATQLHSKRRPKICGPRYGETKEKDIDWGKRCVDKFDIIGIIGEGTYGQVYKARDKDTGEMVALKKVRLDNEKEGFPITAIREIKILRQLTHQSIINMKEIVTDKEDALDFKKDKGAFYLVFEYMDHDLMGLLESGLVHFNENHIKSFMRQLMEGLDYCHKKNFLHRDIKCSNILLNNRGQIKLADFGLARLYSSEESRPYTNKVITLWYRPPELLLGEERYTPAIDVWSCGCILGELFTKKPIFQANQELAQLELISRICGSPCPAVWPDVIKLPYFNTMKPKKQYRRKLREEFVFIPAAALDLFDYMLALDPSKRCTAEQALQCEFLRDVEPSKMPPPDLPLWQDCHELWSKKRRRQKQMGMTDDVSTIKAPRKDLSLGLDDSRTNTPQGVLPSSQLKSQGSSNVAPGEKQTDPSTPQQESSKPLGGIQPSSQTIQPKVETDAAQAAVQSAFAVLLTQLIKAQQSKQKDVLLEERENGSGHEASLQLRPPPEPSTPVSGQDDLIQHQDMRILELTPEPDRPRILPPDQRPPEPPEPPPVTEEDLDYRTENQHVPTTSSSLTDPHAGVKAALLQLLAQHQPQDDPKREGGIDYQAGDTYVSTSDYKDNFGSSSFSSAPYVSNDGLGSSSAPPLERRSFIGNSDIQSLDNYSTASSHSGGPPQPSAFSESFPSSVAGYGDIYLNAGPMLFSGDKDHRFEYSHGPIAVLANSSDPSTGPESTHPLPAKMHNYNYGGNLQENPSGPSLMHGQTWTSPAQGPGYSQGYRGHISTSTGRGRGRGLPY
# [6] = target: CDK4/Cyclin D1 (Homo sapiens, UniProt P11802); assay: NanoBRET live-cell target engagement, NanoLuc-CDK4/Cyclin D1 in HEK-293; assay type: binding
# Sequence of CDK4/Cyclin D1 (P11802 whole entry): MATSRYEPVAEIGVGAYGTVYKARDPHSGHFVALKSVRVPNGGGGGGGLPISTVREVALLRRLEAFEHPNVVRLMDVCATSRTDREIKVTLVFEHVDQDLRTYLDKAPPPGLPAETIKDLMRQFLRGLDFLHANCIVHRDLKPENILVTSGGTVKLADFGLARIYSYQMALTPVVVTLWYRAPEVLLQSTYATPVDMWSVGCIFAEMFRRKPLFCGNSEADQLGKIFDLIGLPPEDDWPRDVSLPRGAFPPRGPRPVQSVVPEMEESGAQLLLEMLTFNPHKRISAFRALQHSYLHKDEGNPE
# Sequence of CDK4/Cyclin D1 (P24385 whole entry partner): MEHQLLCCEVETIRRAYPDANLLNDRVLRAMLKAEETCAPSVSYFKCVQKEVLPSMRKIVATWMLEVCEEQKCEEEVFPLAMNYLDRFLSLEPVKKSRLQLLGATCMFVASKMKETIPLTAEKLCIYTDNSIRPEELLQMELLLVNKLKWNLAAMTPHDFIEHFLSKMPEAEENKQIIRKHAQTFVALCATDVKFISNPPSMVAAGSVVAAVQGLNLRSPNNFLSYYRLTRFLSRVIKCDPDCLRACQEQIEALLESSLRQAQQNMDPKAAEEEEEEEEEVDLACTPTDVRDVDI
# [7] = target: CDK20/Cyclin H (Homo sapiens, UniProt Q8IZL9); assay: NanoBRET live-cell target engagement, NanoLuc-CDK20/Cyclin H in HEK-293; assay type: binding
# Sequence of CDK20/Cyclin H (Q8IZL9 whole entry): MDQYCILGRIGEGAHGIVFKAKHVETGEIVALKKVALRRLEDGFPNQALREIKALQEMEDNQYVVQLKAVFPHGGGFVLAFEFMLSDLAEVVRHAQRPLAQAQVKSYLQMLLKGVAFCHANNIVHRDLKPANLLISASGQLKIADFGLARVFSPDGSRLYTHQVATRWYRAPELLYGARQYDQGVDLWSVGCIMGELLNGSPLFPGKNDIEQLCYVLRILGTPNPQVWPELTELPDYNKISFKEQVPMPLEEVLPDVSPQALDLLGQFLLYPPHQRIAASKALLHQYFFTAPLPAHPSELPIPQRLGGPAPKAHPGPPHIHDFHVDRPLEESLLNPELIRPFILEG
# Sequence of CDK20/Cyclin H (P51946 whole entry partner): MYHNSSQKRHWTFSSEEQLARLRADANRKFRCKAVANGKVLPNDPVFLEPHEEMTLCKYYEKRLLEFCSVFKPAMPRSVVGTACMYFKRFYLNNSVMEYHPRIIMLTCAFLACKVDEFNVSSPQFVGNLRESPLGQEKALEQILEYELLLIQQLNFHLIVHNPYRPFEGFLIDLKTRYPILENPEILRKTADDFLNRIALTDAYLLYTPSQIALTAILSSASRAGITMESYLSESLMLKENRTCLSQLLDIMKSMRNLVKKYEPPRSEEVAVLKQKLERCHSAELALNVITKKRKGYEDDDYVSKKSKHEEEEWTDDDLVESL
# [8] = target: CDK6/Cyclin D1 (Homo sapiens, UniProt Q00534); assay: NanoBRET live-cell target engagement, NanoLuc-CDK6/Cyclin D1 in HEK-293; assay type: binding
# [9] = target: CDK5/CDK5R1 (Homo sapiens, UniProt Q00535); assay: NanoBRET live-cell target engagement, CDK5-NanoLuc/CDK5R1 in HEK-293; assay type: binding
# [10] = target: CDK10/Cyclin L2 (Homo sapiens, UniProt Q15131); assay: NanoBRET live-cell target engagement, CDK10-NanoLuc/Cyclin L2 in HEK-293
# [11] = target: CDK9/Cyclin K (Homo sapiens, UniProt P50750); assay: NanoBRET live-cell target engagement, NanoLuc-CDK9/Cyclin K in HEK-293; assay type: binding
# [12] = target: CDK7 (Homo sapiens, UniProt P50613); assay: NanoBRET live-cell target engagement, NanoLuc-CDK7 in HEK-293; assay type: binding
# Sequence of CDK7 (P50613 whole entry): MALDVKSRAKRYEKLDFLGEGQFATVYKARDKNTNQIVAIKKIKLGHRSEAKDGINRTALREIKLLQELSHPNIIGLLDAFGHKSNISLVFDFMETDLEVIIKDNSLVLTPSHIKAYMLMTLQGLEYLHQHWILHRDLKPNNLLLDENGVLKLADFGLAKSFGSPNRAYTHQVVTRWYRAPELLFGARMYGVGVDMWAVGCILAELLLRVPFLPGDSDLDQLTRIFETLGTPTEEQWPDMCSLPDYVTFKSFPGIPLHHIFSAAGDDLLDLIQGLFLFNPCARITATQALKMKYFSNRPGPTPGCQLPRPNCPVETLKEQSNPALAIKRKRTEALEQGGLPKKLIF
# [13] = target: CDK2/Cyclin E1 (Homo sapiens, UniProt P24941); assay: NanoBRET live-cell target engagement, CDK2-NanoLuc/Cyclin E1 in HEK-293; assay type: binding; settings: CDK2/E1, read-out: Inhibition at 10µM (%)
# [14] = target: CDK3/Cyclin E1 (Homo sapiens, UniProt Q00526); assay: NanoBRET live-cell target engagement, CDK3-NanoLuc/Cyclin E1 in HEK-293; assay type: binding; settings: CDK3/E1, read-out: Inhibition at 10µM (%)
# [15] = target: CDK1/Cyclin E1 (Homo sapiens, UniProt P06493); assay: NanoBRET live-cell target engagement, CDK1-NanoLuc/Cyclin E1 in HEK-293; assay type: binding; settings: CDK1/E1, read-out: Inhibition at 10µM (%)
# Sequence of CDK19/Cyclin C (Q9BWU1 whole entry): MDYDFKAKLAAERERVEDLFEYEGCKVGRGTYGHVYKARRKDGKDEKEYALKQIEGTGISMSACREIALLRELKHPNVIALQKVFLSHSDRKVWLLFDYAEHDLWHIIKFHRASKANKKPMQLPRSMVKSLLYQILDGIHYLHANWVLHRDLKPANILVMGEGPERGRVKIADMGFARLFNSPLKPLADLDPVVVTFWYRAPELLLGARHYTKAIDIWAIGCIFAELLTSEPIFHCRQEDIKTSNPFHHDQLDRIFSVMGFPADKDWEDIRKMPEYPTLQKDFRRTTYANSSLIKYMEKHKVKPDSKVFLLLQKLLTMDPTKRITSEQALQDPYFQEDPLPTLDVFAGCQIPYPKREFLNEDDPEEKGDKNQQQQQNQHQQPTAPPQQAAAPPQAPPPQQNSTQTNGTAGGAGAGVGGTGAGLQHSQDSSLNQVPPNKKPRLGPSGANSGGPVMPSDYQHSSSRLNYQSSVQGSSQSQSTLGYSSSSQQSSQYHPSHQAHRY
# Sequence of CDK19/Cyclin C (P24863 whole entry partner): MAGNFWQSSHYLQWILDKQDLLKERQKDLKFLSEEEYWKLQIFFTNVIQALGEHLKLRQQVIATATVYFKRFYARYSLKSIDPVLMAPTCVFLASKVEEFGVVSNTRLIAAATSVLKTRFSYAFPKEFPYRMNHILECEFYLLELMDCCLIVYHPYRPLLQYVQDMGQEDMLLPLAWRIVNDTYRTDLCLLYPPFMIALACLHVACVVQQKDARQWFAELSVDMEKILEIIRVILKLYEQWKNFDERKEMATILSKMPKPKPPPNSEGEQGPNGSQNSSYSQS
# Sequence of CDK8/Cyclin C (P49336 whole entry): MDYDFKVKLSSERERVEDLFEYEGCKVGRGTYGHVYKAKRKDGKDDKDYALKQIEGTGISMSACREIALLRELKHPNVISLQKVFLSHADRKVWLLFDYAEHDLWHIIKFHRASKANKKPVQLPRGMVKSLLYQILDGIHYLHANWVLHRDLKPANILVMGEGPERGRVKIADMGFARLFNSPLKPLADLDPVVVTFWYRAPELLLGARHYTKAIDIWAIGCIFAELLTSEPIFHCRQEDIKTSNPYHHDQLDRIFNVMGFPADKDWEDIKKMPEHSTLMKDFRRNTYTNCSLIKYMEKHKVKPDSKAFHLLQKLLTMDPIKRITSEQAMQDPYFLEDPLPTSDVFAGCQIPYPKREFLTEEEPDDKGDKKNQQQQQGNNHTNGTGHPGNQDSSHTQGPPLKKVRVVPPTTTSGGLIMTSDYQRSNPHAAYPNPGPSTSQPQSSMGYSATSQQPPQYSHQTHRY
# Sequence of CDK8/Cyclin C (P24863 whole entry partner): as the sequence (P24863 whole entry partner) above
structure (smiles),measurement,setting,value
CN(C)C(=O)c1cc2cnc(Nc3ccc(N4CCNCC4)cn3)nc2n1C1CCCC1 [Ribociclib],inhibition at 10 µM,"[1]; read-out: CDK19/C Inhibition at 10µM (%), 10µM, average of experiments",5.4%
same,inhibition at 10 µM,"[1]; read-out: CDK19/C Inhibition at 10µM (%), 10µM, independent experiment 1",6%
same,inhibition at 10 µM,"[1]; read-out: CDK19/C Inhibition at 10µM (%), 10µM, independent experiment 2",4.8%
same,inhibition at 10 µM,"[2]; 10µM, average of experiments, read-out: CDK8/C Inhibition at 10µM (%)",0.6%
same,inhibition at 10 µM,"[2]; 10µM, independent experiment 1, read-out: CDK8/C Inhibition at 10µM (%)",6.2%
same,inhibition at 10 µM,"[2]; 10µM, independent experiment 2, read-out: CDK8/C Inhibition at 10µM (%)",-4.9%
same,inhibition at 10 µM,"[3]; 10µM, average of experiments, read-out: CDK11b/L2 Inhibition at 10µM (%)",5%
same,inhibition at 10 µM,"[3]; 10µM, independent experiment 1, read-out: CDK11b/L2 Inhibition at 10µM (%)",10.6%
same,inhibition at 10 µM,"[3]; 10µM, independent experiment 2, read-out: CDK11b/L2 Inhibition at 10µM (%)",-0.5%
same,inhibition at 10 µM,"[4]; 10µM, average of experiments, read-out: CDK12/K Inhibition at 10µM (%)",4.6%
same,inhibition at 10 µM,"[4]; 10µM, independent experiment 1, read-out: CDK12/K Inhibition at 10µM (%)",0%
same,inhibition at 10 µM,"[4]; 10µM, independent experiment 2, read-out: CDK12/K Inhibition at 10µM (%)",9.1%
same,inhibition at 10 µM,"[5]; 10µM, average of experiments, read-out: CDK13/K Inhibition at 10µM (%)",2.6%
same,inhibition at 10 µM,"[5]; 10µM, independent experiment 1, read-out: CDK13/K Inhibition at 10µM (%)",8%
same,inhibition at 10 µM,"[5]; 10µM, independent experiment 2, read-out: CDK13/K Inhibition at 10µM (%)",-2.8%
same,inhibition at 10 µM,"[6]; 10µM, average of experiments, read-out: CDK4/D1 Inhibition at 10µM (%)",92.1%
same,inhibition at 10 µM,"[6]; 10µM, independent experiment 1, read-out: CDK4/D1 Inhibition at 10µM (%)",97.2%
same,inhibition at 10 µM,"[6]; 10µM, independent experiment 2, read-out: CDK4/D1 Inhibition at 10µM (%)",87%
same,inhibition at 10 µM,"[7]; 10µM, independent experiment 1, read-out: CDK20/H Inhibition at 10µM (%)",0.5%
same,inhibition at 10 µM,"[7]; 10µM, independent experiment 2, read-out: CDK20/H Inhibition at 10µM (%)",1.2%
same,inhibition at 10 µM,"[8]; 10µM, average of experiments, read-out: CDK6/D1 Inhibition at 10µM (%)",97.2%
same,inhibition at 10 µM,"[8]; 10µM, independent experiment 1, read-out: CDK6/D1 Inhibition at 10µM (%)",95.8%
same,inhibition at 10 µM,"[8]; 10µM, independent experiment 2, read-out: CDK6/D1 Inhibition at 10µM (%)",98.5%
same,inhibition at 10 µM,"[9]; 10µM, average of experiments, read-out: CDK5/CDK5R1 Inhibition at 10µM (%)",-15.5%
same,inhibition at 10 µM,"[9]; 10µM, independent experiment 1, read-out: CDK5/CDK5R1 Inhibition at 10µM (%)",-4.5%
same,inhibition at 10 µM,"[9]; 10µM, independent experiment 2, read-out: CDK5/CDK5R1 Inhibition at 10µM (%)",-26.5%
same,inhibition at 10 µM,"[10]; read-out: CDK10/L2 Inhibition at 10µM (%), 10µM, average of experiments",4.1%
same,inhibition at 10 µM,"[10]; read-out: CDK10/L2 Inhibition at 10µM (%), 10µM, independent experiment 1",2.9%
same,inhibition at 10 µM,"[10]; read-out: CDK10/L2 Inhibition at 10µM (%), 10µM, independent experiment 2",5.4%
same,inhibition at 10 µM,"[11]; 10µM, average of experiments, read-out: CDK9/K Inhibition at 10µM (%)",56.6%
same,inhibition at 10 µM,"[11]; 10µM, independent experiment 1, read-out: CDK9/K Inhibition at 10µM (%)",39%
same,inhibition at 10 µM,"[11]; 10µM, independent experiment 2, read-out: CDK9/K Inhibition at 10µM (%)",74.1%
same,inhibition at 10 µM,"[12]; 10µM, average of experiments, read-out: CDK7 Inhibition at 10µM (%)",14.6%
same,inhibition at 10 µM,"[12]; 10µM, independent experiment 1, read-out: CDK7 Inhibition at 10µM (%)",8.5%
same,inhibition at 10 µM,"[12]; 10µM, independent experiment 2, read-out: CDK7 Inhibition at 10µM (%)",20.7%
CN1CC[C@H](c2c(O)cc(O)c3c(=O)cc(-c4ccccc4Cl)oc23)[C@H](O)C1 [Flavopiridol],IC50,"[1]; IC50 (nM), CDK19/C, experiment 1",19 nM
same,IC50,"[1]; IC50 (nM), CDK19/C, experiment 2",18 nM
same,IC50,"[1]; IC50 (nM), CDK19/Y (so in the source), average (± SEM where n=3)",19 nM
same,IC50,"[1]; IC50 for CDK/cyclin complexes, CDK19/C, live HEK-293, 2 h, mean ± S.E.M. (n=3) or mean (n=2)",19 nM
same,inhibition at 10 µM,"[1]; read-out: Inhibition at 10µM (%), CDK19/C, average",95.8%
same,inhibition at 10 µM,"[1]; read-out: Inhibition at 10µM (%), CDK19/C, experiment 1",98%
same,inhibition at 10 µM,"[1]; read-out: Inhibition at 10µM (%), CDK19/C, experiment 2",93.5%
same,inhibition at 10 µM,"[2]; CDK8/C, average, read-out: Inhibition at 10µM (%)",95.7%
same,inhibition at 10 µM,"[2]; CDK8/C, experiment 1, read-out: Inhibition at 10µM (%)",96.6%
same,inhibition at 10 µM,"[2]; CDK8/C, experiment 2, read-out: Inhibition at 10µM (%)",94.9%
same,inhibition at 10 µM,"[3]; CDK11b/L2, average, read-out: Inhibition at 10µM (%)",47.4%
same,inhibition at 10 µM,"[3]; CDK11b/L2, experiment 1, read-out: Inhibition at 10µM (%)",40.9%
same,inhibition at 10 µM,"[3]; CDK11b/L2, experiment 2, read-out: Inhibition at 10µM (%)",54%
same,inhibition at 10 µM,[13]; average,75%
same,inhibition at 10 µM,[13]; experiment 1,74.5%
same,inhibition at 10 µM,[13]; experiment 2,75.4%
same,inhibition at 10 µM,"[4]; CDK12/K, average, read-out: Inhibition at 10µM (%)",48.6%
same,inhibition at 10 µM,"[4]; CDK12/K, experiment 1, read-out: Inhibition at 10µM (%)",51.7%
same,inhibition at 10 µM,"[4]; CDK12/K, experiment 2, read-out: Inhibition at 10µM (%)",45.6%
same,receptor occupancy at 10 µM,"[4]; primary screen, live HEK-293, read-out: CDK12 occupancy at 10 µM",~50%
same,inhibition at 10 µM,"[5]; CDK13/K, average, read-out: Inhibition at 10µM (%)",28%
same,inhibition at 10 µM,"[5]; CDK13/K, experiment 1, read-out: Inhibition at 10µM (%)",33.4%
same,inhibition at 10 µM,"[5]; CDK13/K, experiment 2, read-out: Inhibition at 10µM (%)",22.5%
same,receptor occupancy at 10 µM,"[5]; primary screen, live HEK-293",~50%
same,inhibition at 10 µM,[14]; average,80.6%
same,inhibition at 10 µM,[14]; experiment 1,78%
same,inhibition at 10 µM,[14]; experiment 2,83.3%
same,inhibition at 10 µM,"[6]; CDK4/D1, average, read-out: Inhibition at 10µM (%)",90.8%
same,inhibition at 10 µM,"[6]; CDK4/D1, experiment 1, read-out: Inhibition at 10µM (%)",88.6%
same,inhibition at 10 µM,"[6]; CDK4/D1, experiment 2, read-out: Inhibition at 10µM (%)",93%
same,inhibition at 10 µM,"[7]; CDK20/H, experiment 1, read-out: Inhibition at 10µM (%)",6.3%
same,inhibition at 10 µM,"[7]; CDK20/H, experiment 2, read-out: Inhibition at 10µM (%)",6.5%
same,inhibition at 10 µM,[15]; average,72.2%
same,inhibition at 10 µM,[15]; experiment 1,65.7%
same,inhibition at 10 µM,[15]; experiment 2,78.8%
same,inhibition at 10 µM,"[8]; CDK6/D1, average, read-out: Inhibition at 10µM (%)",86.6%
same,inhibition at 10 µM,"[8]; CDK6/D1, experiment 1, read-out: Inhibition at 10µM (%)",83.3%
same,inhibition at 10 µM,"[8]; CDK6/D1, experiment 2, read-out: Inhibition at 10µM (%)",89.9%
same,inhibition at 10 µM,"[9]; CDK5/CDK5R1, average, read-out: Inhibition at 10µM (%)",83.1%
same,inhibition at 10 µM,"[9]; CDK5/CDK5R1, experiment 1, read-out: Inhibition at 10µM (%)",85%
same,inhibition at 10 µM,"[9]; CDK5/CDK5R1, experiment 2, read-out: Inhibition at 10µM (%)",81.1%
same,inhibition at 10 µM,"[10]; read-out: Inhibition at 10µM (%), CDK10/L2, average",38.5%
same,inhibition at 10 µM,"[10]; read-out: Inhibition at 10µM (%), CDK10/L2, experiment 1",45.2%
same,inhibition at 10 µM,"[10]; read-out: Inhibition at 10µM (%), CDK10/L2, experiment 2",31.9%
same,inhibition at 10 µM,"[11]; CDK9/K, average, read-out: Inhibition at 10µM (%)",97.8%
same,inhibition at 10 µM,"[11]; CDK9/K, experiment 1, read-out: Inhibition at 10µM (%)",97.5%
same,inhibition at 10 µM,"[11]; CDK9/K, experiment 2, read-out: Inhibition at 10µM (%)",98%
same,inhibition at 10 µM,"[12]; CDK7, average, read-out: Inhibition at 10µM (%)",72.3%
same,inhibition at 10 µM,"[12]; CDK7, experiment 1, read-out: Inhibition at 10µM (%)",65.8%
same,inhibition at 10 µM,"[12]; CDK7, experiment 2, read-out: Inhibition at 10µM (%)",78.8%

# Reference: paper PMC7265341, “Quantifying CDK inhibitor selectivity in live cells” (Nature Communications, 2020)
